What was measured:
Type in all cases: in vivo
[1] = system: Echinochloa crus-galli; test: Post-emergence herbicidal effect; details: 80 g/ha, post-emergence at one-leaf stage, visual score after about 3 weeks
Experimental: (§1) Seeds of monocotyledonous and dicotyledonous weed and crop plants are laid out in sandyloam soil in wood-fiber pots, covered with soil and cultivated in a greenhouse under good growth conditions. 2 to 3 weeks after sowing, the test plants are treated at the one-leaf stage. The compounds of the invention, formulated in the form of wettable powders (WP) or as emulsion concentrates (EC), are then sprayed onto the green parts of the plants as aqueous suspension or emulsion at a water application rate equating to 600 to 800 l/ha with addition of 0.2% wetting agent. After the test plants have been left to stand in the greenhouse under optimal growth conditions for about 3 weeks, the action of the preparations is assessed visually in comparison to untreated controls (herbicidal action in percent (%): 100% activity=the plants have died, 0% activity=like control plants).

[2] = system: Setaria viridis; test: Post-emergence herbicidal effect; details: 80 g/ha, post-emergence at one-leaf stage, visual score after about 3 weeks
Experimental: as §1

[3] = system: Lolium rigidum; test: Post-emergence herbicidal effect; details: 80 g/ha, post-emergence at one-leaf stage, visual score after about 3 weeks
Experimental: as §1

[4] = system: Alopecurus myosuroides; test: Post-emergence herbicidal effect; details: 80 g/ha, post-emergence at one-leaf stage, visual score after about 3 weeks
Experimental: as §1

[5] = system: Digitaria sanguinalis; test: Post-emergence herbicidal effect; details: 80 g/ha, post-emergence at one-leaf stage, visual score after about 3 weeks
Experimental: as §1

[6] = system: Echinochloa crus-galli; test: Pre-emergence herbicidal effect; details: 80 g/ha, visual score after 3 weeks vs untreated controls
Text: (§2) Seeds of monocotyledonous and dicotyledonous weed plants and crop plants are laid out in sandy loam soil in wood-fiber pots and covered with soil. The compounds of the invention, formulated in the form of wettable powders (WP) or as emulsion concentrates (EC), are then applied to the surface of the covering soil as aqueous suspension or emulsion at a water application rate equating to 600 to 800 L/ha with addition of 0.2% wetting agent. After the treatment, the pots are placed in a greenhouse and kept under good growth conditions for the trial plants. The damage to the test plants is scored visually after a test period of 3 weeks by comparison with untreated controls (herbicidal activity in percent (%): 100% activity=the plants have died, 0% activity=like control plants).

[7] = system: Setaria viridis; test: Pre-emergence herbicidal effect; details: 80 g/ha, visual score after 3 weeks vs untreated controls
Text: as §2

[8] = system: Lolium rigidum; test: Pre-emergence herbicidal effect; details: 80 g/ha, visual score after 3 weeks vs untreated controls
Text: as §2

[9] = system: Alopecurus myosuroides; test: Pre-emergence herbicidal effect; details: 80 g/ha, visual score after 3 weeks vs untreated controls
Text: as §2

[10] = system: Digitaria sanguinalis; test: Pre-emergence herbicidal effect; details: 80 g/ha, visual score after 3 weeks vs untreated controls
Text: as §2

[11] = system: Avena fatua; test: Pre-emergence herbicidal effect; details: 80 g/ha, visual score after 3 weeks vs untreated controls
Text: as §2

| SMILES | Post-emergence action against ECHCG (herbicidal action in percent) [1] | Post-emergence action against SETVI (herbicidal action in percent) [2] | Post-emergence action against LOLRI (herbicidal action in percent) [3] | Post-emergence action against ALOMY (herbicidal action in percent) [4] | Post-emergence action against DIGSA (herbicidal action in percent) [5] | Pre-emergence action ECHCG (herbicidal activity in percent) [6] | Pre-emergence action SETVI (herbicidal activity in percent) [7] | Pre-emergence action LOLRI (herbicidal activity in percent) [8] | Pre-emergence action ALOMY (herbicidal activity in percent) [9] | Pre-emergence action DIGSA (herbicidal activity in percent) [10] | Pre-emergence action AVEFA (herbicidal activity in percent) [11] |
| --- | --- | --- | --- | --- | --- | --- | --- | --- | --- | --- | --- |
| C=CCOC1CCC2(CC1)NC(=O)C(c1c(Br)cc(C#CC)cc1OC)=C2OC(=O)OCC (centres unmarked) [Example 1.3.03] | 100% | 100% | 100% | 100% | 100% | 100% | 100% | 100% | 100% | 100% | 90% |
| CC#Cc1cc(Br)c(C2=C(O)C3(CCC(OCCOC)CC3)NC2=O)c(OC)c1 (centres unmarked) [Example 1.3.05] |  |  |  |  |  | 100% | 100% | 100% | 100% | 100% | 90% |
| CC#Cc1cc(Br)c(C2=C(OC(=O)OC)C3(CCC(OCCOC)CC3)NC2=O)c(OC)c1 (centres unmarked) [Example 1.3.06] |  |  |  |  |  | 100% | 100% | 100% | 100% | 100% | 100% |
| CC#Cc1cc(Br)c(C2=C(OC(=O)OCC)C3(CCC(OCCOC)CC3)NC2=O)c(OC)c1 (centres unmarked) [Example 1.3.07] |  |  |  |  |  | 100% | 100% | 100% | 100% | 100% | 100% |
| CC#Cc1cc(Br)c(C2=C(OC(C)=O)C3(CCC(OCCOC)CC3)NC2=O)c(OC)c1 (centres unmarked) [Example 1.3.08] |  |  |  |  |  | 100% | 100% | 100% | 100% | 100% | 90% |
| CC#Cc1cc(Br)c(C2=C(O)C3(CCC(OC(C)C)CC3)NC2=O)c(OC)c1 (centres unmarked) [Example 1.3.09] |  |  |  |  |  | 90% | 100% | 100% | 100% | 100% | 100% |
| CC#Cc1cc(Br)c(C2=C(OC(=O)OC)C3(CCC(OC(C)C)CC3)NC2=O)c(OC)c1 (centres unmarked) [Example 1.3.11] |  |  |  |  |  | 100% | 100% | 100% | 100% | 100% | 90% |
| CC#Cc1cc(Br)c(C2=C(OC(=O)OCC)C3(CCC(OC(C)C)CC3)NC2=O)c(OC)c1 (centres unmarked) [Example 1.3.12] |  |  |  |  |  | 100% | 100% | 100% | 100% | 100% | 80% |
